Reference: ChEMBL document CHEMBL1145011 (J Med Chem, 2003)
One block for each molecule: values may come before it.

How the values were obtained:
in vivo [1] = settings: rat, iv, 10 umol/kg
in vivo [2] = settings: rat, po, 10 umol/kg
in vivo [3] = settings: rat, po, 10 uM/kg
in vivo [4] = settings: rat, plasma, iv, 10 umol/kg
in vivo [5] = settings: rat, po, 10 umol/kg; remark: listed apart in the source
in vivo [6] = settings: rat
[7] = T max value at oral dose of 25 umol/kg in monkey; format: ADME, organism-based; settings: simiiformes, in vivo
[8] = Area under curve at oral dose of 25 umol/kg in monkey; format: ADME; settings: simiiformes, in vivo
[9] = Cmax value at oral dose of 25 umol/kg in monkey; format: ADME, organism-based; design: dose 25 umol/kg, route oral; settings: simiiformes, in vivo
[10] = Half life in monkey at oral dose of 25 umol/kg; format: ADME, organism-based; settings: simiiformes, in vivo
[11] = Percent oral bioavailability at dose of 25 umol/kg in monkey; format: ADME, organism-based; settings: primates, in vivo
[12] = Tested for plasma clearance at intravenous dose of 25 umol/kg in monkey; format: ADME, organism-based
[13] = Tested for volume distribution at intravenous dose of 25 umol/kg in monkey; format: ADME, organism-based; settings: simiiformes, in vivo, read-out: Vss
[14] = Half life in monkey at intravenous dose of 25 umol/kg; format: ADME, organism-based; settings: simiiformes, in vivo
in vivo [15] = settings: rat, plasma, iv, 10 umol/kg; remark: listed apart in the source
[16] = Area under curve at intravenous dose of 25 umol/kg in monkey; format: ADME; settings: simiiformes, in vivo
in vivo [17] = settings: rat, iv, 10 umol/kg; remark: listed apart in the source
in vitro = settings: human, Caco-2

SMILES: Cc1onc(NS(=O)(=O)c2ccccc2-c2ccc(-c3ncco3)cc2CN2CCC(C)(C)C2=O)c1C
Vd (in vivo [1]): 2.3 L/kg
Cmax (in vivo [2]): 7.7 µM
bioavailability (in vivo [3]): 78%
clearance (in vivo [4]): 9.3 mL/min/kg
Tmax (in vivo [5]): 0.6 h
half-life (in vivo [6]): 4.7 h

Tmax [7]: 1.2 h
AUC [8]: 41.5 µM·h
Cmax [9]: 16.1 µM
half-life [10]: 17 h
bioavailability [11]: 26%
clearance [12]: 2.7 mL/min/kg
Vd [13]: 0.25 L/kg
half-life [14]: 14 h
Cmax (in vivo [2]): 28 µM
bioavailability (in vivo [3]): 100%
clearance (in vivo [15]): 5.4 mL/min/kg
AUC [16]: 161 µM·h
Tmax (in vivo [5]): 0.4 h
half-life (in vivo [6]): 3.4 h
Vd (in vivo [17]): 1.1 L/kg
SMILES: Cc1onc(NS(=O)(=O)c2ccccc2-c2ccc(-c3ncco3)cc2N(C)C(=O)CC(C)(C)C)c1C

SMILES: Cc1noc(NS(=O)(=O)c2ccccc2-c2ccc(-c3ncco3)cc2COCC(C)C)c1C
Papp (in vitro): < 3 ×10⁻⁶ cm/s

Papp (in vitro): 8.9 ×10⁻⁶ cm/s
SMILES: Cc1noc(NS(=O)(=O)c2ccccc2-c2ccc(-c3ncco3)cc2/C=C\c2ccccc2)c1C

SMILES: Cc1noc(NS(=O)(=O)c2ccccc2-c2ccc(-c3ncco3)cc2Cc2ncco2)c1C
Papp (in vitro): 14.8 ×10⁻⁶ cm/s
